A melting point compilation (Tetko et al.; mined from patent text by program, amines drawn as free bases though some values may be those of a salt)

melting point [°C]	SMILES
73 to 75	CCCCC1(CCCC)CCc2c(OCc3ccccc3C(N)=O)cccc2C1O (centres undefined)
92 to 93	COC(=O)C(C)(C)c1cn2nc(Cl)ccc2n1
165 to 168	Cc1cc2c(cc1C)C1(CO2)C(=O)N(Cc2ccccn2)c2ccccc21 (centres undefined)
146 to 147	COC1(c2ccccc2)N=CC(=O)N(C)c2ccc(Cl)cc21 (centres undefined)
150 to 151	OC1CSC(Sc2ccccc2)C(O)C1O (centres undefined)
67 to 68	CCCc1cccc2c(/C=C(\C)C(=O)O)cc(OC)c(OCOC)c12
157 to 159	CCOC(=O)C1=C(C)NC(N)=C(C(=O)OCC)C1c1cccc(Cl)c1 (centres undefined)
168	CCC1(C)Cc2cc(OCC(=O)O)c(Cl)c(Cl)c2C1=O (centres undefined)
81	CC(=O)N1c2ccccc2[C@@]2(C)Cc3ccccc3[C@@]12C (relative stereo)
230 to 231	COc1ccc2[nH]c3cnc4c(c3c2c1)C(=O)CC(C)(C)C4
188 to 190	CS(=O)(=O)c1cc(Br)ccc1CN1C(=O)c2ccccc2C1=O
84 to 86	c1ccc(C2CNc3ccccc3C2)cc1 (centres undefined)
101 to 102	Cc1oc(-c2ccccc2)nc1C(C)O (centres undefined)
151 to 152	O=C(O)C(=O)CC(=O)c1ccn(Cc2ccccc2)c1
106 to 108	CCCCc1nc2ccccn2c(=O)c1-c1ccc(OS(=O)(=O)C(F)(F)F)cc1
72	O=C(O)CC(c1ccccc1)C(F)(F)F (centres undefined)
100 to 109	O=C1c2c(O)cccc2OC12CC2
142 to 146	CCCOc1ccc(CN2CCC(C(N)=O)CC2)cc1
172 to 176	COc1cc2c(cc1F)CCN=C2C1(c2ccccc2Cl)CC1
122 to 126	CC1(C)C(=O)N(Cc2ccccc2Cl)OC1O (centres undefined)

melting point [°C]	SMILES
240 to 245	O=C1NC(=O)C(c2ccc(NC(=O)c3ccccc3)cc2)S1 (centres undefined)
260 to 261	O=c1c2c(n(-c3ccccc3)c3ncccc13)SCC2
205 to 207	CNC(=O)c1ncnc(C)c1NC(=O)c1cc(Cl)nn1-c1ncccc1Cl
111 to 113	O=C(Nc1ccccc1)N(Cc1ccc(Cl)cc1)C1CC2CCC1C2 (centres undefined)
123 to 124	CCCCCCCCN1C(=O)NC2(CC(C)(CC)N(CCOC(=O)c3ccccc3)C(C)(CC)C2C)C1=O (centres undefined)
152 to 155	Cn1nc(C(F)(F)F)n(-c2ccc([N+](=O)[O-])cc2Cl)c1=S
117 to 118	CCOC(=O)C(C)N1c2ccccc2Sc2ccc(C#N)cc21 (racemic)
120 to 122	CCOC(=O)C1=CCC2(CC1S(=O)(=O)Nc1ccc(F)cc1Cl)OCCO2 (centres undefined)
107 to 109	CC(c1ccccc1[N+](=O)[O-])S(N)(=O)=O (centres undefined)
129 to 131	COC(=O)Cc1coc2cc(C(=O)NC(C(=O)NCc3ccccc3)c3ccccc3)ccc12 (centres undefined)
210 to 213	Cn1ccc(=O)c(O)c1C(O)c1ccccc1 (centres undefined)
110 to 111	Cc1ccc(S(=O)(=O)N2CCC[C@H](CBr)c3ccccc32)cc1
101	CN(C(=O)COc1nnc(Cl)s1)c1ccccc1
124 to 125	COc1nc(Cl)n2nc(SCc3ccccc3)nc2c1Br
79 to 81	NS(=O)(=O)c1cc(C(=O)OC[C@@H]2CCCN2N=O)c(NCc2ccco2)cc1Cl
203 to 204	CN1c2ccccc2NC(=S)c2cscc21
230 to 232	O=C(O)COc1ccc(Cl)c2c(=O)c3ccccc3sc12
266 to 268	O=C(O)c1ccc(=O)n(CCNC(=O)c2ccccn2)c1
149 to 150	Cn1nc(C(=O)O)cc1-c1ccccc1

Second part, the compound before the results:

SMILES	melting point [°C]
CN1CCN(c2cccc3c2C[C@H](NC(=O)c2ccc(OC(F)(F)F)cc2)CO3)CC1	192 to 193
O=C(O)Cc1ccc(OCCCc2cc(-c3ccc(C(F)(F)F)cc3)no2)cc1	127 to 128
OC(Cn1cncn1)(Cn1cnc(C=Cc2ccc(C(F)(F)F)cc2)n1)c1ccc(OC(F)(F)F)cc1 (centres undefined)	193 to 195
CNc1cc(NS(=O)(=O)c2cccc(Cl)c2)nc(NC)n1	167 to 168
O=C(c1ccc2ncsc2c1)N1CCC[C@H](c2nc(-c3ccc(F)cc3)no2)C1	63 to 64
Cn1cnc2nc(-c3ccc(F)cc3)nn2c1=S	> 300
CCCCCC(=S)SCCC	55 to 56
c1ccc2c(c1)[C@H](N1CCCCC1)C[C@@H]2N1CCCCC1	114 to 115
CCC(C)C(OCc1ccccc1)C1C(C(=O)NCC(=O)O)NC(C2CC2)C1[N+](=O)[O-] (centres undefined)	161 to 163
Cc1cc(OCc2coc(C=Cc3ccc(OC(F)F)cc3)n2)ccc1COCCn1ccnn1	119 to 120
CCCCCCCCCCCCn1nnc(CCC(=O)OC)n1	39 to 42
CC1(C)Cc2nc(C3CCCC3)c(C(F)c3ccc(C(F)(F)F)cc3)c(-c3ccc(F)c(F)c3)c2C(O)C1 (centres undefined)	149 to 150
CN1CCN(C2=Nc3cc(F)ccc3N3CCc4cccc2c43)CC1	151 to 153
CCCc1c(N)c(N)cc2c(=O)cc(C(=O)OC)oc12	221 to 222
CC(=O)Nc1ccc(Sc2c(-c3ccc(S(C)(=O)=O)cc3)cnn(CC(F)(F)F)c2=O)cc1	191 to 193
CCC(C)(C)Nc1c(NCc2cc3cc(C#N)ccc3o2)c(=O)c1=O	171 to 173
CC(NC(=O)NCCCCC1CCSS1)C(=O)NS(N)(=O)=O (centres undefined)	156 to 157
CC(Oc1ccc2nc(NC(=O)NCCC3CCN(C(=O)OC(C)(C)C)CC3)sc2c1)c1c(Cl)ccc(F)c1Cl (centres undefined)	95 to 105
Cc1ccc(C(=O)c2cccc(C)c2N)cc1	77 to 78
CSc1cc(C)c(O)c(C)c1SC	98 to 100
CC(=O)OC[C@H]1CCn2c(c(C3=C(c4cn(C)c5ccccc45)C(=O)NC3=O)c3ccccc32)C1	238 to 241
N#Cc1cc2nc(O)c(O)nc2cc1C#N	> 300

SMILES	melting point [°C]
COc1ccc2ncc([N+](=O)[O-])c(Cl)c2c1	281 to 283
COc1cc(C2C3=C(COC3=O)Nc3ccc4nn[nH]c4c32)cc(OC)c1OC (centres undefined)	324 to 325
CCCc1c(OCc2ccc(OCC(=O)O)cc2)ccc(C(C)=O)c1O	140 to 142
CC(=Nc1ccc(NC(=O)CN)cc1)N(C)C	142 to 145
Cc1cc(-n2cncn2)cc(C#N)c1N	231 to 233
N#Cc1ccc(-c2nc(-c3ccc(F)cc3)c(-c3ccnc4ccccc34)[nH]2)cc1	294 to 295
Nc1nc(-c2cc(Cl)ccc2Cl)nc(N(CCO)CCO)n1	199 to 200
Cc1ccc(NS(=O)(=O)c2ccc(Br)cc2)c(F)c1	111
Cc1nc(C)c(=O)n(CCO)c1C	140 to 144
COc1ccc(N2CCN(c3c(C)c(C)c4c(c3C)CC(C)(COC=O)O4)CC2)cc1 (centres undefined)	120 to 124
CC(C(=O)O)c1ccc2c(c1)Sc1ncccc1CC2 (centres undefined)	161 to 162
Cc1cc(=O)n(-c2cc3c(cc2F)OC(CC#N)C(=O)N3)c(=O)[nH]1 (centres undefined)	> 230
O=C(O)c1cn(C2CC2)c2cc(N3CC(O)C3)c(F)cc2c1=O	296 to 298
COc1cccc(C(F)(F)F)c1S(=O)(=O)NC(=O)Nc1nc(C)cc(C)n1	190
COc1cc(Nc2nsc(-c3ccccc3)n2)ccc1-c1cnco1	260 to 261
CC(C)OC(=O)c1cc(-n2c(=O)[nH]c3c(c2=O)CCC3)c(F)cc1Br	214 to 216
CN(C(=O)c1ccc(Cn2cnc3cnccc32)cc1)C1CCCCC1	121 to 123
CC(C)CCOc1c(-c2ccc(S(C)(=O)=O)cc2)cnn(-c2ccc(F)cc2)c1=O	117 to 120
O=[PH](c1ccc(N2CCCC2)cc1)c1ccc(N2CCCC2)cc1	199
CC(C)NC(=O)c1cc2[nH]cnc2c(Cl)c1NC(=O)c1cc(C(F)(F)F)nn1-c1ncccc1Cl	200 to 203
CC(C)c1ccc2nc(C(F)(F)F)c(C(=O)Nc3nccs3)c(O)c2c1	262
COc1ccc(S(=O)(=O)n2ccc3ccnc(-c4ccco4)c32)cc1	127 to 130

SMILES	melting point [°C]
CCNc1c([N+](=O)[O-])cc(C(C)(C)C)cc1[N+](=O)[O-]	70 to 73
Cc1ccc2c(c1)[nH]c1cc(C)ccc12	280 to 281
CC(C#N)c1cccc(C(=O)c2cc3sccc3s2)c1 (centres undefined)	75
Nc1cc(C(=O)Nc2ccc(F)cc2)ccc1OC(F)(F)F	139 to 140
N#CSC1=Nc2ccccc2Sc2nccn21	111 to 113
C=CCOc1ccc(OC[C@H]2CC[C@H](C=C)CC2)c(F)c1F	27.3
COc1cccc(-c2nc3n(n2)CCc2ccccc2-3)c1	94 to 96
CCCCOCCCNC(c1ccccc1)C(O)c1ccccc1 (centres undefined)	82 to 84
CS(=O)(=O)c1ccc(Oc2ccc(Cl)c(Cl)c2)c(Cl)c1	102 to 104
COc1cc(N)c(Cl)cc1C(=O)NCC1CCN(CCCCCNCc2ccc(F)cc2)CC1	66 to 68
COc1cc(C(=O)O)nc(-c2cccc([N+](=O)[O-])c2)c1	207 to 210
CCCCCCCCCCCCOc1ccc(O)c(C(=O)NNC(=O)c2ccccc2O)c1	244
O=Cc1ccccc1C=C1c2ccccc2CCc2ccccc21	199
Cn1c(NCCOS(C)(=O)=O)cc(=O)n(C)c1=O	169 to 170
COC(=O)c1cc(/C=N/O)ccc1[N+](=O)[O-]	116
COc1cc(OC)cc(-c2ncoc2-c2ccc(OC(F)F)c(N)c2)c1	105
COc1ccc(C(=O)Nc2ccccc2)cc1NCc1ccc([N+](=O)[O-])c(O)c1	140 to 143
CS(=O)(=O)Nc1cc(C(O)CNC2CCN(c3ccc(CC4SC(=O)N(CC(=O)O)C4=O)cc3)CC2)ccc1O (centres undefined)	158 to 160
N#CCc1ccc(NS(=O)(=O)c2ccc(N3CCNC3=O)cc2)cc1	204 to 206
CCOC(=O)c1c(N2CCN(C(=O)c3cccs3)CC2)c2cnccc2[nH]c1=O	231
CC(=NO)c1ccc(N)c(S(N)(=O)=O)c1	230 to 233
